PubChem BioAssay (NCI)
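Cells were grown in 96-well plates and exposed to each compound for 48 hours at five concentrations; endpoints were interpolated linearly between bracketing concentrations, or set to the highest concentration if not reached. Here, GI50 denotes the concentration required for 50% inhibition of growth. The concentration for full growth arrest is given as TGI.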

Key:
Assay in all cases: NCI-60 cell line screen, 48 h
HL-60(TB) leukemia = tested on: HL-60(TB) leukemia
NCI-H23 lung = tested on: NCI-H23 lung
OVCAR-8 ovarian = tested on: OVCAR-8 ovarian
SK-MEL-5 melanoma = tested on: SK-MEL-5 melanoma
UACC-62 melanoma = tested on: UACC-62 melanoma
K-562 leukemia = tested on: K-562 leukemia
CCRF-CEM leukemia = tested on: CCRF-CEM leukemia
TK-10 renal = tested on: TK-10 renal
OVCAR-4 ovarian = tested on: OVCAR-4 ovarian
MDA-MB-435 = tested on: MDA-MB-435
NCI/ADR-RES ovarian = tested on: NCI/ADR-RES ovarian
MOLT-4 leukemia = tested on: MOLT-4 leukemia
RPMI-8226 leukemia = tested on: RPMI-8226 leukemia
PC-3 prostate = tested on: PC-3 prostate
EKVX NSCLC = tested on: EKVX NSCLC
SK-OV-3 ovarian = tested on: SK-OV-3 ovarian
A498 renal = tested on: A498 renal
U251 CNS = tested on: U251 CNS
COLO 205 colon = tested on: COLO 205 colon
IGROV1 ovarian = tested on: IGROV1 ovarian
ACHN renal = tested on: ACHN renal
HT29 colon = tested on: HT29 colon
HS 578T breast = tested on: HS 578T breast
786-0 renal = tested on: 786-0 renal
DU-145 prostate = tested on: DU-145 prostate
OVCAR-5 ovarian = tested on: OVCAR-5 ovarian
SF-295 CNS = tested on: SF-295 CNS
UACC-257 melanoma = tested on: UACC-257 melanoma
NCI-H522 lung = tested on: NCI-H522 lung
OVCAR-3 ovarian = tested on: OVCAR-3 ovarian
CAKI-1 renal = tested on: CAKI-1 renal
SK-MEL-2 melanoma = tested on: SK-MEL-2 melanoma
LOX IMVI melanoma = tested on: LOX IMVI melanoma
UO-31 renal = tested on: UO-31 renal
KM12 colon = tested on: KM12 colon
SK-MEL-28 melanoma = tested on: SK-MEL-28 melanoma
SN12C renal = tested on: SN12C renal
HCC-2998 colon = tested on: HCC-2998 colon
MDA-MB-231 breast = tested on: MDA-MB-231 breast
T-47D breast = tested on: T-47D breast
BT-549 breast = tested on: BT-549 breast
M14 melanoma = tested on: M14 melanoma
SF-539 CNS = tested on: SF-539 CNS
HOP-92 NSCLC = tested on: HOP-92 NSCLC
NCI-H460 lung = tested on: NCI-H460 lung
SW-620 colon = tested on: SW-620 colon
SNB-19 CNS = tested on: SNB-19 CNS
HCT-15 colon = tested on: HCT-15 colon
RXF 393 renal = tested on: RXF 393 renal
NCI-H226 lung = tested on: NCI-H226 lung
HOP-62 NSCLC = tested on: HOP-62 NSCLC
MALME-3M melanoma = tested on: MALME-3M melanoma
MCF7 breast = tested on: MCF7 breast
A549 NSCLC = tested on: A549 NSCLC
SF-268 CNS = tested on: SF-268 CNS
SNB-75 CNS = tested on: SNB-75 CNS

O=C1NC(=O)c2c1c1c3ccccc3ccc1c1[nH]c3ccc(Br)cc3c21
GI50 (HL-60(TB) leukemia): 1.75 µM
TGI (HL-60(TB) leukemia): 6.29 µM
GI50 (NCI-H23 lung): 1.46 µM
TGI (NCI-H23 lung): 4.48 µM
GI50 (OVCAR-8 ovarian): 2.33 µM
TGI (OVCAR-8 ovarian): > 100 µM
GI50 (SK-MEL-5 melanoma): 1.56 µM
TGI (SK-MEL-5 melanoma): 2.94 µM
GI50 (UACC-62 melanoma): 1.91 µM
TGI (UACC-62 melanoma): 3.87 µM
GI50 (K-562 leukemia): 0.789 µM
TGI (K-562 leukemia): > 100 µM
GI50 (CCRF-CEM leukemia): 1.22 µM
TGI (CCRF-CEM leukemia): > 100 µM
GI50 (TK-10 renal): 2.45 µM
TGI (TK-10 renal): > 100 µM
GI50 (OVCAR-4 ovarian): 1.74 µM
TGI (OVCAR-4 ovarian): 4.85 µM
GI50 (MDA-MB-435): 1.66 µM
TGI (MDA-MB-435): 3.74 µM
GI50 (NCI/ADR-RES ovarian): 1.53 µM
TGI (NCI/ADR-RES ovarian): 5.63 µM
GI50 (MOLT-4 leukemia): 1.19 µM
TGI (MOLT-4 leukemia): 4.03 µM
GI50 (RPMI-8226 leukemia): 0.501 µM
TGI (RPMI-8226 leukemia): 2.87 µM

COc1cc(Nc2ncc3c(n2)-c2ccc(Cl)cc2C(c2c(F)cccc2OC)=NC3)ccc1C(=O)O
GI50 (PC-3 prostate): 7.87 µM
TGI (PC-3 prostate): 70.4 µM
GI50 (EKVX NSCLC): 13.1 µM
TGI (EKVX NSCLC): 69.1 µM
GI50 (HL-60(TB) leukemia): 16.5 µM
TGI (HL-60(TB) leukemia): > 68 µM
GI50 (SK-OV-3 ovarian): 10.6 µM
TGI (SK-OV-3 ovarian): 44 µM
GI50 (A498 renal): 0.211 µM
TGI (A498 renal): 2.55 µM
GI50 (NCI-H23 lung): 10.9 µM
TGI (NCI-H23 lung): 65.1 µM
GI50 (OVCAR-8 ovarian): 8.94 µM
TGI (OVCAR-8 ovarian): > 100 µM
GI50 (U251 CNS): 2.74 µM
TGI (U251 CNS): 33.3 µM
GI50 (COLO 205 colon): 0.0651 µM
TGI (COLO 205 colon): 16.7 µM
GI50 (IGROV1 ovarian): 2.19 µM
TGI (IGROV1 ovarian): 19.3 µM
GI50 (ACHN renal): 2.34 µM
TGI (ACHN renal): 55.1 µM
GI50 (HT29 colon): 2.24 µM
TGI (HT29 colon): 23.8 µM
GI50 (HS 578T breast): 3.3 µM
TGI (HS 578T breast): > 71.3 µM
GI50 (786-0 renal): 4.4 µM
TGI (786-0 renal): > 83.6 µM
GI50 (DU-145 prostate): 17.6 µM
TGI (DU-145 prostate): > 87.5 µM
GI50 (OVCAR-5 ovarian): 7.54 µM
TGI (OVCAR-5 ovarian): > 77.7 µM
GI50 (SF-295 CNS): 0.0719 µM
TGI (SF-295 CNS): > 64.1 µM
GI50 (UACC-257 melanoma): 18.2 µM
TGI (UACC-257 melanoma): > 92.5 µM
GI50 (NCI-H522 lung): 0.501 µM
TGI (NCI-H522 lung): 3.88 µM
GI50 (OVCAR-3 ovarian): 7.33 µM
TGI (OVCAR-3 ovarian): 34.4 µM
GI50 (CAKI-1 renal): 1.66 µM
TGI (CAKI-1 renal): 29.3 µM
GI50 (SK-MEL-2 melanoma): 13.4 µM
TGI (SK-MEL-2 melanoma): 38 µM
GI50 (LOX IMVI melanoma): 0.91 µM
TGI (LOX IMVI melanoma): 21.3 µM
GI50 (SK-MEL-5 melanoma): 12.3 µM
TGI (SK-MEL-5 melanoma): 29.1 µM
GI50 (UO-31 renal): 2.57 µM
TGI (UO-31 renal): 21.4 µM
GI50 (KM12 colon): 0.26 µM
TGI (KM12 colon): > 92.9 µM
GI50 (SK-MEL-28 melanoma): 13.2 µM
TGI (SK-MEL-28 melanoma): > 92 µM
GI50 (SN12C renal): 4.04 µM
TGI (SN12C renal): > 90.4 µM
GI50 (HCC-2998 colon): 19.2 µM
TGI (HCC-2998 colon): > 100 µM
GI50 (UACC-62 melanoma): 3.9 µM
TGI (UACC-62 melanoma): 30.1 µM
GI50 (MDA-MB-231 breast): 3.07 µM
TGI (MDA-MB-231 breast): > 100 µM
GI50 (K-562 leukemia): 5.24 µM
TGI (K-562 leukemia): > 100 µM
GI50 (T-47D breast): 12.1 µM
TGI (T-47D breast): > 91.2 µM
GI50 (BT-549 breast): 5.88 µM
TGI (BT-549 breast): > 81.1 µM
GI50 (M14 melanoma): 13.6 µM
TGI (M14 melanoma): 42.8 µM
GI50 (SF-539 CNS): 0.503 µM
TGI (SF-539 CNS): 20 µM
GI50 (CCRF-CEM leukemia): 0.579 µM
TGI (CCRF-CEM leukemia): > 65.9 µM
GI50 (HOP-92 NSCLC): 2.35 µM
TGI (HOP-92 NSCLC): 14.1 µM
GI50 (TK-10 renal): 4.61 µM
TGI (TK-10 renal): 24.4 µM
GI50 (OVCAR-4 ovarian): 3.7 µM
TGI (OVCAR-4 ovarian): > 86.2 µM
GI50 (NCI-H460 lung): 0.0412 µM
TGI (NCI-H460 lung): > 83.6 µM
GI50 (SW-620 colon): 1.74 µM
TGI (SW-620 colon): > 100 µM
GI50 (SNB-19 CNS): 13.3 µM
TGI (SNB-19 CNS): > 100 µM
GI50 (HCT-15 colon): 4.77 µM
TGI (HCT-15 colon): > 100 µM
GI50 (RXF 393 renal): 1.59 µM
TGI (RXF 393 renal): 13.1 µM
GI50 (NCI-H226 lung): 2.06 µM
TGI (NCI-H226 lung): 18.1 µM
GI50 (HOP-62 NSCLC): 5.08 µM
TGI (HOP-62 NSCLC): 58.5 µM
GI50 (MALME-3M melanoma): 16.9 µM
TGI (MALME-3M melanoma): > 89.1 µM
GI50 (MCF7 breast): 0.0469 µM
TGI (MCF7 breast): > 100 µM
GI50 (NCI/ADR-RES ovarian): 1.38 µM
TGI (NCI/ADR-RES ovarian): > 100 µM
GI50 (A549 NSCLC): 0.505 µM
TGI (A549 NSCLC): 37.8 µM
GI50 (SF-268 CNS): 9.51 µM
TGI (SF-268 CNS): 92.8 µM
GI50 (MOLT-4 leukemia): 8.09 µM
TGI (MOLT-4 leukemia): > 75.9 µM
GI50 (SNB-75 CNS): 2.23 µM
TGI (SNB-75 CNS): 24.6 µM
GI50 (RPMI-8226 leukemia): 12 µM
TGI (RPMI-8226 leukemia): > 65 µM
